“Also recorded” adds a separate entry of the source.
Key:
Format in all cases: cell-based
S. aureus RN4220 strain [1] = test: Toxicity study of compounds in bacterial culture (no phage); settings: 20 μM; 16 h; inhibitor alone
Procedure: FIG. 79. Toxicity study of compounds in bacterial culture. Bacterial growth study in the presence of the compound. Bacterial cell S. aureus RN4220 strain was allowed to grow either in the presence of DMSO or 20 μM of compound BRD7087 or BRD5779 over 16 h. The experiment was performed in three technical replicates.
Bacterial study. Plasmid pRH248 harboring SpCas9, tracrRNA and a single-spacer array ([…]) (SEQ ID 13) No. targeting phage (DNM474 was constructed via BsaI cloning onto pDB114 as described in Heler et al 6. Plate reader growth curves of bacteria infected with phage were conducted as described previously with minor modifications 7. Overnight cultures were diluted 1:100 into 2 ml of fresh BHI supplemented with appropriate antibiotics and 5 mM CaCl2) and grown to an OD600 of ˜0.2. Immune cells carrying pRH248 were diluted with cells lacking CRISPR-Cas in a 1:10,000 ratio. […] To produce plate reader growth curves, 200 μL of infected cultures, normalized for OD600, were transferred to a 96-well plate in triplicate. […]
Bacterial study. […] Plate reader growth curves of bacteria infected with phage were conducted as described previously with minor modifications^7. […] To produce plate reader growth curves, 200 μL of infected cultures, normalized for OD600, were transferred to a 96-well plate in triplicate. […]

S. aureus RN4220 strain [2] = test: Bacterial resistance study against phage (CRISPR-immunity, OD600 growth curves); settings: 5-20 μM; for blockage of CRISPR-immunity: sensitization of immune bacterial cells to phage: OD600 over 16 hours, phage MOI 1
Procedure: (§1) Bacterial study. Plasmid pRH248 harboring SpCas9, tracrRNA and a single-spacer array ([…]) (SEQ ID 13) No. targeting phage (DNM474 was constructed via BsaI cloning onto pDB114 as described in Heler et al 6. Plate reader growth curves of bacteria infected with phage were conducted as described previously with minor modifications 7. Overnight cultures were diluted 1:100 into 2 ml of fresh BHI supplemented with appropriate antibiotics and 5 mM CaCl2) and grown to an OD600 of ˜0.2. Immune cells carrying pRH248 were diluted with cells lacking CRISPR-Cas in a 1:10,000 ratio. Following a 15-minute pre-incubation with DMSO or with varying amounts of inhibitors (5-20 μM), the cultures were infected with <DNM474 at an initial MOI of 1. To produce plate reader growth curves, 200 μL of infected cultures, normalized for OD600, were transferred to a 96-well plate in triplicate. OD600 measurements were collected every 10 minutes for 16 hours. Similarly, growth curves to evaluate the toxicity of the compounds at 20 μM (FIG. 32) were conducted on cultures lacking CRISPR in the absence of phage.
as §1, with “NO:38)” for “13) No.”, “DNM474” for “(DNM474”, “al^6.” for “al 6.”, “modifications^7.” for “modifications 7.”, “DNM474” for “<DNM474”, “Similarly, growth curves to evaluate the toxicity of the compounds at 20 μM (FIG. 32) were conducted on cultures lacking CRISPR in the absence of phage.” left out

SpCas9 [3] = molecular target: T1, SpCas9 (Streptococcus pyogenes serotype M1, UniProt Q99ZW2); test: mKate2 expression (knockdown) assay; settings: for activity in mKate2 assay: HEK293 cells, 1.5-5 μM, 24 h
T1 sequence (Q99ZW2 whole entry): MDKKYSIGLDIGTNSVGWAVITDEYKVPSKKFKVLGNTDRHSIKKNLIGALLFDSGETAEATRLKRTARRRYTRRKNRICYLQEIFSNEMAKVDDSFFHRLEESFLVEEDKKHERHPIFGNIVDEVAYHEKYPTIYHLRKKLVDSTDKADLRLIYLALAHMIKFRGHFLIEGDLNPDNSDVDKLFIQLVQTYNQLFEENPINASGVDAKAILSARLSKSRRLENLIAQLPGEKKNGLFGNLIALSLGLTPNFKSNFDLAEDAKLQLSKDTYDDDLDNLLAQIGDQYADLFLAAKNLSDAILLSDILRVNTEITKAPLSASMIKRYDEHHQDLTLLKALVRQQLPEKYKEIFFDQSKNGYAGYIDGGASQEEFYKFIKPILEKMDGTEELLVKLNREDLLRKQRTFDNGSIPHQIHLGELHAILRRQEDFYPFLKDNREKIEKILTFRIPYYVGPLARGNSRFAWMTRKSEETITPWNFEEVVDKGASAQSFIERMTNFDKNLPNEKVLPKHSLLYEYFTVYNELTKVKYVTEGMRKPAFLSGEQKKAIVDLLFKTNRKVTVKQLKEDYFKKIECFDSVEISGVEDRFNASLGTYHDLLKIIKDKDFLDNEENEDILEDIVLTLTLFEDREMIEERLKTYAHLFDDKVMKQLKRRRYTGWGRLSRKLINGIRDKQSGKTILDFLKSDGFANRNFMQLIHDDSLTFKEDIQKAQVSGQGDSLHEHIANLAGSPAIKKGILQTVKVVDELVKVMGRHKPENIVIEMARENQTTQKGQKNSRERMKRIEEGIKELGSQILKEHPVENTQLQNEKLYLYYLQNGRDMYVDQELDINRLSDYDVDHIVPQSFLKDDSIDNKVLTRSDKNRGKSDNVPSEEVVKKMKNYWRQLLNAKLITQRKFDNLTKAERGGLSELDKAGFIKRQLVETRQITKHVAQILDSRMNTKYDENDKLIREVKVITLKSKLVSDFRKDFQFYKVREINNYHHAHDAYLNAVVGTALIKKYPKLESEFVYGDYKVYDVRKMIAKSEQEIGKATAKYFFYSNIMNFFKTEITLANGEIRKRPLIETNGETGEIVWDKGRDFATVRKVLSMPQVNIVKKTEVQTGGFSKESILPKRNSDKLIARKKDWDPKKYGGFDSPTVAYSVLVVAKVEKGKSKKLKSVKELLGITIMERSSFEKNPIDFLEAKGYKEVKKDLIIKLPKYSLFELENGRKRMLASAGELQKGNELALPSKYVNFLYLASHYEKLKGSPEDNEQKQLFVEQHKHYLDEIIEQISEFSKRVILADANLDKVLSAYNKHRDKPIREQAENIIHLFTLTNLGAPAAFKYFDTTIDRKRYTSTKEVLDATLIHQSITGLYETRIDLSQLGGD
Procedure: mKate2 expression assay. Approximately 8,000 cells/well were plated in a 96-well format 24 h before transiently transfected with 100 ng of either CgRNA (Addgene Plasmid #64955) or T1gRNA (Addgene Plasmid #62717) plasmids using lipofectamine 2000 (Life Technologies). Transfected cells were allowed to grow in the indicated amount of compound or DMSO for 24 h. Cells were then fixed using 4% paraformaldehyde and imaged with the HCS NuclearMask™ Blue Stain (Life Technologies) as the nuclear counter-staining agent. Imaging was performed with an IXM 137204 ImageXpress Automated High Content Microscope (Molecular Devices) at 20× magnification under two excitation channels (blue and red) with 9 acquiring sites per well. Images were analyzed in the MetaXpress software to determine the % mKate2 positive cells and the % NHEJ was calculated following a reported protocol and plotted using GraphPad Prism 6. The Z′-value was calculated following the formula: […]

SpCas9 [4] = molecular target: T1, SpCas9; test: Cas9 nuclease activity in EGFP disruption assay (U2OS.eGFP.PEST cells); design: host or cells: U2OS.eGFP-PEST; settings: 10 μM
Procedure: (§2) Cas9 Nuclease activity in EGFP disruption assay. Approximately 200,000 U2OS.eGFP-PEST cells were nucleofected with 400 ng of SpCas9 (Addgene Plasmid #43861) and 40 ng of sgRNA (pFYF1320 EGFP Site #1, Addgene Plasmid #47511) expressing plasmids along with a Td-tomato-encoding plasmid using the SE Cell Line 4D-Nucleofector™ X Kit (Lonza) according to the manufacturer's protocol. Approximately 20,000 transfected cells/well in 3 replicates were plated in a 96-well plate (Corning® 3904). Cells were allowed to grow in the indicated amount of compound or DMSO for 24 h post transfection. Cells were then fixed using 4% paraformaldehyde and imaged with the HCS NuclearMask™ Blue Stain (Life Technologies) as the nuclear counter-staining agent. Imaging was performed with an IXM 137204 ImageXpress Automated High Content Microscope (Molecular Devices) at 10× magnification under three excitation channels (blue, green and red) with 9 acquiring sites per well. Images were analyzed in the MetaXpress software and data were plotted using GraphPad Prism 6. The Z′-value was calculated following the formula: […]
Cas9 Nuclease activity in EGFP disruption assay. In some embodiments, a quantitative human cell-based reporter assay that enables rapid quantitation of targeted nuclease activities is used to characterize off-target cleavage of CRISPR protein-based RNA guided endonucleases. In this assay, the activities of nucleases targeted to a single integrated EGFP reporter gene can be quantified by assessing loss of fluorescence signal in human U2OS.EGFP cells caused by inactivating frameshift insertion/deletion (indel) mutations introduced by error prone non-homologous end-joining (NHEJ) repair of nuclease-induced double-stranded breaks (DSBs).
as §2, with “Approximately” for “Cas9 Nuclease activity in EGFP disruption assay. Approximately”

Row | SMILES | toxicity to bacteria in the absence of phage (S. aureus RN4220 strain [1]) | blockage of CRISPR-immunity: sensitization of immune bacterial cells to phage (S. aureus RN4220 strain [2]) | activity in mKate2 assay (SpCas9 [3]) | activity in phage assay compared with BRD5779 (S. aureus RN4220 strain [2]) | inhibition at 10 µM (SpCas9 [4]) | inhibition of SpCas9 activity (SpCas9 [4]) | IC50 (SpCas9 [3])
1 | COc1ccc(-c2ccc3c(c2)[C@H]2[C@H](CCN2Cc2ccncc2)[C@@H](CO)N3)cc1 [BRD5779, ((3aR,4S,9bR)-8-(4-Methoxyphenyl)-1-(pyridin-4-ylmethyl)-2,3,3a,4,5,9b-hexahydro-1H-pyrrolo[3,2-c]quinolin-4-yl)methanol] | non-toxic in the absence of phage | able to sensitize the immune bacterial cells against target phage in a dose-dependent manner; also recorded: dose-dependent blockage of CRISPR-Cas9 based immunity | Dose-dependent recovery of the mKate2 signal | – | – | – | –
2 | OC[C@H]1Nc2ccc(-c3cccc(F)c3)cc2[C@H]2[C@@H]1CCN2Cc1ccncc1 [BRD7087, ((3aR,4S,9bR)-8-(3-Fluorophenyl)-1-(pyridin-4-ylmethyl)-2,3,3a,4,5,9b-hexahydro-1H-pyrrolo[3,2-c]quinolin-4-yl)methanol] | non-toxic in the absence of phage | able to sensitize the immune bacterial cells against target phage in a dose-dependent manner; also recorded: dose-dependent blockage of CRISPR-Cas9 based immunity | Dose-dependent recovery of the mKate2 signal; also recorded: more active than BRD5779 | higher activity | 44% | 44% | ~5 µM
